Target: SARS-CoV-2 Papain-Like Protease (PLpro) (Severe acute respiratory syndrome coronavirus 2 (2019-nCoV) (SARS-CoV-2), UniProt P0DTD1)
Test: biochemical
Details: SARS-CoV-2 PLpro enzymatic fluorescence assay; read-out: PLpro IC50

SMILES | IC50
Cc1ccc(OCCN(C)C)cc1C(=O)NC1(c2cccc(-c3ccsc3)c2)CC1 [Compound 325, 5-(2-(Dimethylamino)ethoxy)-2-methyl-N-(1-(3-(thiophen-3-yl)phenyl)cyclopropyl)benzamide] | 100 to 1000 nM
Cc1ccc(OCCN(C)C)cc1C(=O)NC1(c2ccccc2Cl)CC1 [Compound 326, N-(1-(2-chlorophenyl)cyclopropyl)-5-(2-(dimethylamino)ethoxy)-2-methylbenzamide] | 1000 to 5000 nM
Cc1ccc(OCCN(C)C)cc1C(=O)NC1(c2ccccc2OCc2ccccc2)CC1 [Compound 327, N-(1-(2-(Benzyloxy)phenyl)cyclopropyl)-5-(2-(dimethylamino)ethoxy)-2-methylbenzamide] | 1000 to 5000 nM
Cc1ccc(OCCN(C)C)cc1C(=O)NC1(c2cccc3c2CCCC3)CC1 [Compound 329, 5-(2-(Dimethylamino)ethoxy)-2-methyl-N-(1-(5,6,7,8-tetrahydronaphthalen-1-yl)cyclopropyl)benzamide] | 100 to 1000 nM
Cc1ccc(OCC2CCN2Cc2ccccc2)cc1C(=O)NC1(c2cccc3ccccc23)CC1 (stereo not shown) [Compound 330, 5-((1-Benzylazetidin-2-yl)methoxy)-2-methyl-N-(1-(naphthalen-1-yl)cyclopropyl)benzamide] | < 100 nM
Cc1ccc(OCC2CCN2c2ccccc2)cc1C(=O)NC1(c2cccc3ccccc23)CC1 (stereo not shown) [Compound 331, 2-Methyl-N-(1-(naphthalen-1-yl)cyclopropyl)-5-((1-phenylazetidin-2-yl)methoxy)benzamide] | > 5000 nM
Cc1ccc(OCC2CCN2CC2CC2)cc1C(=O)NC1(c2cccc3ccccc23)CC1 (stereo not shown) [Compound 332, 5-((1-(Cyclopropylmethyl)azetidin-2-yl)methoxy)-2-methyl-N-(1-(naphthalen-1-yl)cyclopropyl)benzamide] | < 100 nM
Cc1ccc(OCCN(C)C)cc1C(=O)NC1(c2cccc3ccncc23)CC1 [Compound 333, 5-(2-(Dimethylamino)ethoxy)-N-(1-(isoquinolin-8-yl)cyclopropyl)-2-methylbenzamide] | 100 to 1000 nM
Cc1cc2c3c([nH]c2cc1C(=O)NC1(c2cccc4ccccc24)CC1)C(=O)CC3 [Compound 334, 7-Methyl-N-(1-(naphthalen-1-yl)cyclopropyl)-3-oxo-1,2,3,4-tetrahydrocyclopenta[b]indole-6-carboxamide] | 1000 to 5000 nM
Cc1ccc(OCCN(C)C)cc1C(=O)NC1(c2cccc(Cl)c2Cl)CC1 [Compound 335, N-(1-(2,3-Dichlorophenyl)cyclopropyl)-5-(2-(dimethylamino)ethoxy)-2-methylbenzamide] | 100 to 1000 nM
Cc1ccc(OCCN(C)C)cc1C(=O)NC1(c2cccc(Br)c2C)CC1 [Compound 336, N-(1-(3-Bromo-2-methylphenyl)cyclopropyl)-5-(2-(dimethylamino)ethoxy)-2-methylbenzamide] | 100 to 1000 nM
C#Cc1ccc(OCCN(C)C)cc1C(=O)NC1(c2cccc3ccccc23)CC1 [Compound 337, 5-(2-(Dimethylamino)ethoxy)-2-ethynyl-N-(1-(naphthalen-1-yl)cyclopropyl)benzamide] | > 5000 nM
Cc1ccc(OCCN(C)C)cc1C(=O)NC1(c2cccc(C3=CCCCC3)c2)CC1 [Compound 338, 5-(2-(Dimethylamino)ethoxy)-2-methyl-N-(1-(2′,3′,4′,5′-tetrahydro-[1,1′-biphenyl]-3-yl)cyclopropyl)benzamide] | 1000 to 5000 nM
Cc1ccc(OCCN(C)C)cc1C(=O)NC1(c2cccc(-c3ccccc3)c2C)CC1 [Compound 340, 5-(2-(Dimethylamino)ethoxy)-2-methyl-N-(1-(2-methyl-[1,1′-biphenyl]-3-yl)cyclopropyl)benzamide] | 100 to 1000 nM
Cc1ccc(OCC(N)C(C)(C)C)cc1C(=O)NC1(c2cccc3ccccc23)CC1 (stereo not shown) [Compound 343, 5-(2-Amino-3,3-dimethylbutoxy)-2-methyl-N-(1-(naphthalen-1-yl)cyclopropyl)benzamide] | < 100 nM
Cc1ccc(OCCN(C)C)cc1C(=O)NC1(c2ccccc2C(C)C)CC1 [Compound 344, 5-(2-(Dimethylamino)ethoxy)-N-(1-(2-isopropylphenyl)cyclopropyl)-2-methylbenzamide] | 100 to 1000 nM
Cc1ccc(OCCN(C)C)cc1C(=O)NC1(c2cc(O)cc3ccccc23)CC1 [Compound 345, 5-(2-(Dimethylamino)ethoxy)-N-(1-(3-hydroxynaphthalen-1-yl)cyclopropyl)-2-methylbenzamide] | < 100 nM
Cc1ccc(OCCN(C)C)cc1C(=O)NC1(c2csc3ccccc23)CC1 [Compound 346, N-(1-(Benzo[b]thiophen-3-yl)cyclopropyl)-5-(2-(dimethylamino)ethoxy)-2-methylbenzamide] | 100 to 1000 nM
CNCCOc1ccc(C)c(C(=O)NC2(c3cc(OC)cc4ccccc34)CC2)c1 [Compound 347, N-(1-(3-Methoxynaphthalen-1-yl)cyclopropyl)-2-methyl-5-(2-(methylamino)ethoxy)benzamide] | < 100 nM
COCCN1CCC1COc1ccc(C)c(C(=O)NC2(c3cccc4ccccc34)CC2)c1 (stereo not shown) [Compound 348, 5-((1-(2-Methoxyethyl)azetidin-2-yl)methoxy)-2-methyl-N-(1-(naphthalen-1-yl)cyclopropyl)benzamide] | < 100 nM

SMILES | IC50
CNCCOc1ccc(C)c(C(=O)N[C@@H](c2cccc3ccccc23)C(F)(F)F)c1 [Compound 349, (S)-2-Methyl-5-(2-(methylamino)ethoxy)-N-(2,2,2-trifluoro-1-(naphthalen-1-yl)ethyl)benzamide] | 100 to 1000 nM
Cc1cnc(OCCN(C)C)nc1C(=O)NC1(c2cccc3ccccc23)CC1 [Compound 350, 2-(2-(Dimethylamino)ethoxy)-5-methyl-N-(1-(naphthalen-1-yl)cyclopropyl)pyrimidine-4-carboxamide] | 1000 to 5000 nM
CCNCCOc1ccc(C)c(C(=O)NC2(c3cccc4ccccc34)CC2)c1 [Compound 351, 5-(2-(Ethylamino)ethoxy)-2-methyl-N-(1-(naphthalen-1-yl)cyclopropyl)benzamide] | < 100 nM
Cc1ccc(OCC(C)(C)N)cc1C(=O)NC1(c2cccc3ccccc23)CC1 [Compound 352, 5-(2-Amino-2-methylpropoxy)-2-methyl-N-(1-(naphthalen-1-yl)cyclopropyl)benzamide] | < 100 nM
CN(C)CCOc1ccc(C2CC2)c(C(=O)NC2(c3cccc4ccccc34)CC2)c1 [Compound 353, 2-Cyclopropyl-5-(2-(dimethylamino)ethoxy)-N-(1-(naphthalen-1-yl)cyclopropyl)benzamide] | > 5000 nM
Cc1ccc(OCCN(C)C)cc1C(=O)NC1(c2cn(C)c3ccccc23)CC1 [Compound 354, 5-(2-(Dimethylamino)ethoxy)-2-methyl-N-(1-(1-methyl-1H-indol-3-yl)cyclopropyl)benzamide] | 100 to 1000 nM
Cc1ccc(OCCN(C)C)cc1C(=O)NC1(c2cccc(-c3cccs3)c2)CC1 [Compound 355, 5-(2-(Dimethylamino)ethoxy)-2-methyl-N-(1-(3-(thiophen-2-yl)phenyl)cyclopropyl)benzamide] | 100 to 1000 nM
Cc1ccc(OCCN(C)C)cc1C(=O)NC1(c2cccc3sccc23)CC1 [Compound 356, N-(1-(Benzo[b]thiophen-4-yl)cyclopropyl)-5-(2-(dimethylamino)ethoxy)-2-methylbenzamide] | < 100 nM
Cc1ccc(OCCN(C)C)cc1C(=O)NC1(c2cccc3occc23)CC1 [Compound 357, N-(1-(Benzofuran-4-yl)cyclopropyl)-5-(2-(dimethylamino)ethoxy)-2-methylbenzamide] | 100 to 1000 nM
COCCNCCOc1ccc(C)c(C(=O)NC2(c3cccc4ccccc34)CC2)c1 [Compound 358, 5-(2-((2-Methoxyethyl)amino)ethoxy)-2-methyl-N-(1-(naphthalen-1-yl)cyclopropyl)benzamide] | < 100 nM
Cc1ccc(OCCNCCO)cc1C(=O)NC1(c2cccc3ccccc23)CC1 [Compound 359, 5-(2-((2-Hydroxyethyl)amino)ethoxy)-2-methyl-N-(1-(naphthalen-1-yl)cyclopropyl)benzamide] | < 100 nM
Cc1ccc(OCCNCc2ccccc2)cc1C(=O)NC1(c2cccc3ccccc23)CC1 [Compound 360, 5-(2-(Benzylamino)ethoxy)-2-methyl-N-(1-(naphthalen-1-yl)cyclopropyl)benzamide] | < 100 nM
Cc1ccc(OCCNCC2CC2)cc1C(=O)NC1(c2cccc3ccccc23)CC1 [Compound 361, 5-(2-((Cyclopropylmethyl)amino)ethoxy)-2-methyl-N-(1-(naphthalen-1-yl)cyclopropyl)benzamide] | < 100 nM
Cc1ccc(OCCNC(C)C)cc1C(=O)NC1(c2cccc3ccccc23)CC1 [Compound 362, 5-(2-(Isopropylamino)ethoxy)-2-methyl-N-(1-(naphthalen-1-yl)cyclopropyl)benzamide] | < 100 nM
COc1cc(C2(NC(=O)c3cc(OCCN)ccc3C)CC2)c2ccccc2c1 [Compound 363, 5-(2-Aminoethoxy)-N-(1-(3-methoxynaphthalen-1-yl)cyclopropyl)-2-methylbenzamide] | < 100 nM
CCc1ccccc1C1(NC(=O)c2cc(OCCN(C)C)ccc2C)CC1 [Compound 364, 5-(2-(Dimethylamino)ethoxy)-N-(1-(2-ethylphenyl)cyclopropyl)-2-methylbenzamide] | 100 to 1000 nM
Cc1ccc(OCCN(C)C)cc1C(=O)NC1(c2cccc3ccc(F)cc23)CC1 [Compound 365, 5-(2-(Dimethylamino)ethoxy)-N-(1-(7-fluoronaphthalen-1-yl)cyclopropyl)-2-methylbenzamide] | < 100 nM
Cc1cnc(OCCN(C)C)cc1C(=O)NC1(c2cccc3ccccc23)CC1 [Compound 366, 2-(2-(Dimethylamino)ethoxy)-5-methyl-N-(1-(naphthalen-1-yl)cyclopropyl) isonicotinamide] | 100 to 1000 nM
Cc1ccc(OCC(N)c2ccccc2)cc1C(=O)NC1(c2cccc3ccccc23)CC1 (stereo not shown) [Compound 367, 5-(2-Amino-2-phenylethoxy)-2-methyl-N-(1-(naphthalen-1-yl)cyclopropyl)benzamide] | < 100 nM
Cc1ccc(OCCN(C)C)cc1C(=O)NC1(c2cccc3ccsc23)CC1 [Compound 368, N-(1-(Benzo[b]thiophen-7-yl)cyclopropyl)-5-(2-(dimethylamino)ethoxy)-2-methylbenzamide] | 100 to 1000 nM

Reference: US20250025443A1, “COMPOUNDS AND METHODS FOR TREATING CORONA VIRUSES” (CLEAR CREEK BIO, INC., priority 2021, published 2025)
